Source: ChEMBL document CHEMBL1944548, “Discovery of kinase spectrum selective macrocycle (16E)-14-methyl-20-oxa-5,7,14,26-tetraazatetracyclo[19.3.1.1(2,6).1(8,12)]heptacosa-1(25),2(26),3,5,8(27),9,11,16,21,23-decaene (SB1317/TG02), a potent inhibitor of cyclin dependent kinases (CDKs), Janus kinase 2 (JAK2), and fms-like tyrosine …” (J Med Chem, 2012)
pIC50: −log10 of the molar value.

Tests used:
[1] = AUC (0 to infinity) in BALB/c mouse at 5 mg/kg, iv by LC-MS/MS analysis; format: ADME, organism-based; parameters: time infinity, dose 5 mg/kg, route intravenous; conditions: plasma
[2] = molecular target: Tyrosine-protein kinase JAK2 (Homo sapiens, UniProt O60674); assay: Inhibition of recombinant JAK2 using poly(Glu,Ala,Tyr) as substrate after 2 hrs by luminescence assay
Cytochrome P450 3A4 = Cytochrome P450 3A4 (Homo sapiens, UniProt P08684); assay: Inhibition of CYP3A4 in human liver microsomes using midazolam as substrate after 5 mins by LC-MS/MS analysis; format: ADME, Microsome
Ramos = assay: Antiproliferative activity against human Ramos cells after 48 hrs; format: functional, cell-based

Chain of Cytochrome P450 3A4 (P08684 whole entry): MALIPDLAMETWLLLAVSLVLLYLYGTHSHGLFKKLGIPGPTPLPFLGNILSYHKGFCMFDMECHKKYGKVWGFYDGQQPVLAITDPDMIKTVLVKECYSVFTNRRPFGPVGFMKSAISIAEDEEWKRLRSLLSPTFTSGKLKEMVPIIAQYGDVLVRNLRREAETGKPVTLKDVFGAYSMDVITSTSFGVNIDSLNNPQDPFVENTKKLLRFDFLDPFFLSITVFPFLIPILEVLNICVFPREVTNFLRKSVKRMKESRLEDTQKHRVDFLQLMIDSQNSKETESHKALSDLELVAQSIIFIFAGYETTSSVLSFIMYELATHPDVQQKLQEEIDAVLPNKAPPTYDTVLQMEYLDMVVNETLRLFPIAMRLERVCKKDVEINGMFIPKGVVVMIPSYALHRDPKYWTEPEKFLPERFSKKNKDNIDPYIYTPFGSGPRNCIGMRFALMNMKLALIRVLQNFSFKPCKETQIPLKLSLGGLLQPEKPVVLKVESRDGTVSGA
Chain of Tyrosine-protein kinase JAK2 (O60674 whole entry): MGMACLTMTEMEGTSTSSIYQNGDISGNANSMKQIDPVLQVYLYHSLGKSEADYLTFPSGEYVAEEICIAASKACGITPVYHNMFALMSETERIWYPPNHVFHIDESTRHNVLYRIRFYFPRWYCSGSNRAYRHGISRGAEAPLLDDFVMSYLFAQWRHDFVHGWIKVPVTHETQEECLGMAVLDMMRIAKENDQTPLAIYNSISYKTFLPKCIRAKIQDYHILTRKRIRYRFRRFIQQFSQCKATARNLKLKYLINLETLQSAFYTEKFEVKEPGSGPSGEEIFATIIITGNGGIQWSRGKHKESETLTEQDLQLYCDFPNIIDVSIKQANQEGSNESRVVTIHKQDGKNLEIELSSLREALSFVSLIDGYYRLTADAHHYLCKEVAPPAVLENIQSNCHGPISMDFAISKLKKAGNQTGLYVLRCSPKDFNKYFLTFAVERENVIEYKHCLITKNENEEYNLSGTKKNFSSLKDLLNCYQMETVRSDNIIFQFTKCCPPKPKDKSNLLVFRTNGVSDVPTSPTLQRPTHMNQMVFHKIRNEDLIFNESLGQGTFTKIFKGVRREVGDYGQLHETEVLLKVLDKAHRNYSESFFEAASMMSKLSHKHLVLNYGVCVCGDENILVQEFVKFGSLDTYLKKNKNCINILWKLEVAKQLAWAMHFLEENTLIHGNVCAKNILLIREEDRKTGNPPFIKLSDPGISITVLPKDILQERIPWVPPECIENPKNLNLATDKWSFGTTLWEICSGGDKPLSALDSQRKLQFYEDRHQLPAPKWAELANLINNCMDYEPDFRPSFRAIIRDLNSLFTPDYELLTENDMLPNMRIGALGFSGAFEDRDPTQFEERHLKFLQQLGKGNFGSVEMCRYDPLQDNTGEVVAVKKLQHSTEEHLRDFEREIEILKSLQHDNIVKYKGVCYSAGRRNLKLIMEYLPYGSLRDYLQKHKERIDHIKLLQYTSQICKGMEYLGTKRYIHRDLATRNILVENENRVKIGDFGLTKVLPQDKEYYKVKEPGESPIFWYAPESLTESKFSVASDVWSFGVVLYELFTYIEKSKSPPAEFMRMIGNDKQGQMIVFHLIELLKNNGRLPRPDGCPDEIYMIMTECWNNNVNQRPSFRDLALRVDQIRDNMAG

Work on `CN1C/C=C/CCOc2cccc(c2)-c2ccnc(n2)Nc2cccc(c2)C1` [ZOTIRACICLIB] yielded an AUC(0-inf) [1] of 752 ng·h/mL, a pIC50 [2] of 7.14 and a pIC50 (Cytochrome P450 3A4) of under 4.60. For the same compound, the pIC50 (Ramos) was 7.48.
